Literature values, collected in patent publication US5773459A, “Urea- and thiourea-type compounds” (Sugen, Inc., priority 1995, dated 1998).

How the values were obtained:
[1] = tested on: human breast cancer cells; settings: Sepp-Lorenzino et al., Abstract, 1994; cited from earlier work
[2] = tested on: IGF-1R protein tyrosine kinase; settings: Sepp-Lorenzino et al., Abstract, 1994; cited from earlier work

CO[C@H]1[C@@H](OC)C[C@H](C)[C@@H](OC)C2=CC(=O)C=C(NC(=O)/C(C)=C/C=C\[C@H](OC)[C@@H](OC(N)=O)/C(C)=C/[C@@H]1C)C2=O [Herbimycin A]
inhibition of cellular proliferation in human breast cancer cells [1]: inhibit | inhibition of the IGF-1R protein tyrosine kinase [2]: inhibit
